Laboratory results published in US8158589B2, “Peptides with the capacity to bind to transforming growth factor β1 (TGF-β1)” (Proyecto Biomedicine Cima, S.L., priority 2003, dated 2012).
Ends that are not written are not given here.

Columns and labels:
TGF-β1 [1] = target: T1, TGF-β1 (Rattus norvegicus, UniProt P17246); test: Corneal fibrosis and haze after 1 N NaOH damage, topical eye drops, photographs analysed with ImageJ; format: in vivo, Long-Evans rats
T1 construct: from tissue; host or cells: cornea of Long-Evans rats
T1 sequence (P17246 279-390 limits assumed): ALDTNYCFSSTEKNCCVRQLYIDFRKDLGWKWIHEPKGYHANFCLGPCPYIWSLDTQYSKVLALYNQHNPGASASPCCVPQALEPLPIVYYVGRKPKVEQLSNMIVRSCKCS
Text: Male Long-Evans rats aged 10 weeks were used, divided into 5 groups: • Group 1: 12 rats, 6 treated with dexamethasone and 6 treated with mitomycin C • Group 2: 12 rats, 6 treated with p17 of the first formulation (see section 6.1.2.b) and 6 treated with p144 of the first formulation (see section 6.1.2.b) • Group 3: 12 rats, 6 treated with p17 of the second formulation (see section 6.1.2.b) and 6 treated with p144 of the second formulation (see section 6.1.2.b) • Group 4: 12 rats, 6 treated with p17 of the third formulation (see section 6.1.2.b) and 6 treated with p144 of the third formulation (see section 6.1.2.b) • Group 5: 12 rats, 6 treated with p17 of the fourth formulation (see section 6.1.2.b) and 6 treated with p144 of the fourth formulation (see section 6.1.2.b) • Group 6: 12 rats, 6 treated with p17 of the fifth formulation (see section 6.1.2.b) and 6 treated with p144 of the fifth formulation (see section 6.1.2.b)
To perform the damage in the cornea, the animals were anesthetized with isoflurane and a 5 mm Whatman paper disc impregnated in 1 N NaOH for 30 seconds was applied to them in the central part of the eye. After the damage, they were washed with abundant physiological saline serum and an antibiotic ointment was applied to them to prevent possible infections in the affected area.
After conducting several in vivo studies with the previously described groups of animals, it could be concluded that the chemical damage occurring after the application of NaOH for 30 seconds caused an excessive lesion for the study which was to be conducted, therefore it was decided to conduct new experiments reducing the time to 15 seconds.
It was randomly established that the left eye of each animal would act as a control and that the right eye would be the treated eye, such that the same animals acts as a control in addition to being treated. It must be pointed out that all the animals received antibiotic treatment in both eyes daily only during the first week of the study for the purposes of avoiding microbial keratitis.
Starting from 0.15% sodium hyaluronate (Hyabak 10 mL, Thea) without preservatives: • p144: 20 mg were dissolved in 5 ml of eye drops, 40 μl of saturated concentrated NaOH were incorporated, stirring and adding in portions of 5 μl. It was sonicated until solubilization. To adjust the pH, 500 μl of 1M Hepes were added, such that the pH changed from 10.5 to 7 • p144 control: 40 μl of saturated NaOH and 500 μl of 1 M HEPES (final concentration of HEPES 50 mM) • p17: 20 mg were dissolved in 5 ml of the eye drops, it was sonicated until complete solubilization and it was incorporated to the vial with a 10 ml syringe and a blue needle to perforate the filter of the contained (final concentration 2 mg/ml) • p17 control: non-manipulated eye drops • Note: The formulations were maintained at 4° C. throughout the study.
The administration of the treatment was initiated twenty-four hours after the damage. After that time a follow-up of the damage was performed, which consisted of taking photographs at days 0, 7, 14, 21, 28 and 35. To take the photographs the animals were anesthetized with isoflurane. Photographs were taken of both the control eye (left) and of the treated eye (right) with and without fluorescein. The photographs with fluorescein allowed to observe the evolution of the epithelial closure of the generated lesion, whereas the photographs without fluorescein show the evolution of the haze of the lesioned area. […]

TGF-β1 [2] = target: T2, TGF-β1 (Mus musculus, UniProt P04202); test: Model of acute liver damage induced by CCl4, type I collagen mRNA by real time PCR; format: in vivo, mice
T2 construct: from tissue; host or cells: liver of Balb/C mice (CCl4 model); lung of C57BL/6 mice (bleomycin model)
T2 sequence (P04202 279-390 limits assumed): as the sequence (P17246 279-390 limits assumed) above
Procedure: Acute liver damage generates a cascade of effects and physiological responses, including elevations in the concentrations of TGF-β1. This elevation is responsible for the expression of the type I collagen gene, among others. In this model of acute liver damage, female Balb/C mice weighing 25 to 30 g, were orally administered a dose of 2 μl of CCl4 (per gram of body weight) dissolved in an equivalent volume of corn oil (volumetric ratio of 1:1). The control group received an equivalent volume of corn oil only, and the treated groups received (following the single oral administration of CCl4 in corn oil) 50 μg of peptide in 500 μl of 1% physiological saline solution in DMSO (dimethyl sulfoxide) every 24 h. After 72 hours all animals were sacrificed, and the liver samples were processed. To evaluate mRNA expression, liver tissue was frozen in liquid nitrogen and stored at −80° C. until further use. Other liver tissue samples were stored in OCT® or Tissue-Tek® (Sakura Finetek B.V.) and processed in the same way as the samples used for mRNA studies. Other liver samples were fixed in 10% buffered formalin solution, embedded in paraffin and processed for their histological evaluation. The amount of mRNA encoding type I collagen was quantified in all groups using a quantitative polymerase chain reaction (PCR) technique. […] The capacity of the testing peptides to block the acute damage, as assessed by measuring the levels of induced type I collagen mRNA was quantified by real time PCR. […] The peptides tested were obtained by conventional solid peptide synthesis procedures (Merrifield R B. J Am Chem Soc 1963; 85:2149-2154; Atherton E et al. J Chem Soc Perkin Trans 1981; 1:538-546).

TGF-β1 [3] = target: T3, TGF-β1 (Homo sapiens, UniProt P01137); test: Immunofluorescence of p-Smad2 translocation to the nucleus in rabbit corneal fibroblasts; format: cell-based; set-up: host or cells: added to a primary culture of rabbit corneal fibroblasts; details: TGF-β1 treated rabbit corneal fibroblasts
T3 sequence (P01137 279-390 limits assumed, species assumed): as the sequence (P17246 279-390 limits assumed) above, with S75A counted along it
Procedure: (§1) Therefore, Western Blot and immunofluorescence studies were conducted to determine, from cells extracted from the in vivo studies, the signaling pathway used by the peptides administered topically. It should be emphasized that said studies were conducted on fibroblasts from rabbit cornea and not from rat cornea. This decision was made due to the difficulty entailed in isolating fibroblasts from rodent eyes.

TGF-β1 [4] = target: T3, TGF-β1; test: Western Blot of p-Smad2, Smad2/3 and Smad7 in primary culture of rabbit corneal fibroblasts; format: cell-based; set-up: host or cells: added to a primary culture of rabbit corneal fibroblasts
Procedure: as §1
Since the scientific literature repeatedly describes the TGF-β1 signaling pathways, the decision was made to go into depth in such pathways by means of the techniques described in the methodology section. Said pathways involve the study of the Smad protein family, specifically the study of the isoforms Smad2, 2/3 and 7.
To that end, protein extracts obtained from the primary culture of rabbit fibroblasts were treated with TGF-β1 at concentrations of 0, 3 and 5 ng/ml and, 50 and 200 μg/ml of peptide p17 and p144.

[5] = fifth formulation eye drops, treated right eye vs control left eye
[6] = primary culture, TGF-β1 and peptide

| Compound | clinical efficacy in the treatment of corneal fibrosis (TGF-β1 [1]; first experiment, Group 1) | % Inhibition of type I collagen mRNA induction (in vivo TGF-β1 biological activity) (TGF-β1 [2]; Balb/C mice, oral CCl4, 50 μg of peptide every 24 h, sacrifice after 72 hours) | inhibition of the biological activity of TGF-β1 in vivo (in words) (TGF-β1 [2]; acute liver damage, type I collagen mRNA) | translocation of p-Smad2 to the nucleus (TGF-β1 [3]) | corneal haze (TGF-β1 [1]; [5]) | epithelial closure (fluorescein) (TGF-β1 [1]; [5]) | expression of p-Smad2 (TGF-β1 [4]; peptide 50 μg/ml) | expression of p-Smad2 (TGF-β1 [4]; peptide 200 μg/ml) | expression of Smad 2/3 (TGF-β1 [4]; [6]) | expression of Smad 7 (TGF-β1 [4]; [6]) |
| --- | --- | --- | --- | --- | --- | --- | --- | --- | --- | --- |
| CO[C@@]12[C@H](COC(N)=O)C3=C(C(=O)C(C)=C(N)C3=O)N1C[C@@H]1N[C@@H]12 [mitomycin C] | correspond to those described in the scientific literature |  |  |  |  |  |  |  |  |  |
| TSLDASIIWAMMQN [P144] |  | −3.51 ± 36% | does not show any activity | inhibited | clear decrease | clear decrease | slight inhibition | reaching the values of the controls | not affected | not modified |
